For this assay, the target named is T1, rat B1R (bradykinin receptor 1) (Rattus norvegicus, UniProt P97583).
T1 construct: expressed in transfected cells; host or cells: CHO K1 cells
T1 sequence (P97583 1-337): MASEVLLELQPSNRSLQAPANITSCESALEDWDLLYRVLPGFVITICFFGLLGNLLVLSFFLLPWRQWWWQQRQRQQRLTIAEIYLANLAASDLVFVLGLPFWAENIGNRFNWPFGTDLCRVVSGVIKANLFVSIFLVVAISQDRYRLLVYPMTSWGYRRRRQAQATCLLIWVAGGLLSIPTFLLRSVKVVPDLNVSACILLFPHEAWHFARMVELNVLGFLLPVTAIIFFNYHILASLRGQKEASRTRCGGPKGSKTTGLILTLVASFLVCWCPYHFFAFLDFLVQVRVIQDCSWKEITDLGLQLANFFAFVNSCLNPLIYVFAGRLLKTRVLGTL
Briefly: FLIPR Ca2+ assay (Fluo-4) on CHO K1 cells stably transfected with the B1R gene of the rat (rB1R cells): % inhibition at 10 μM / IC50, agonist Des-Arg9-bradykinin. The note with it: CHO-K1, rat B1R. Type of assay: cell-based. The gist of the method: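 Stable CHO K1 lines, Fluo-4 dye, probenecid-containing buffer. Cpd 10 μM or dose range, 10–20 min, then EC80 agonist (h: Lys-Des-Arg9-BK; r: Des-Arg9-BK). Readout peak FC; % inhibition vs max; IC50 from n=2–3, N≥2.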
Regarding `CN(C1CCc2ccc(C(=O)N3CCC4(CC3)CCN(c3ccncc3)CC4)cc21)S(=O)(=O)c1ccc(Br)cc1Cl` (stereo not drawn) [IND_CC-405, 4-Bromo-2-chloro-N-methyl-N-[6-(9-pyridin-4-yl-3,9-diazaspiro[5.5]undecane-3-carbonyl)-2,3-dihydro-1H-inden-1-yl]-benzenesulfonic acid amide], the inhibition (commonly the change of the read-out against control, counted positive when it falls) at 10 µM amounted to 96%. For `CN(C1CCc2ccc(C(=O)N3CCC4(CC3)CCN(c3ccncc3)CC4)cc21)S(=O)(=O)c1c(Cl)cc(Cl)cc1Cl` (stereo not drawn) [IND_CC-406, 2,4,6-Trichloro-N-methyl-N-[6-(9-pyridin-4-yl-3,9-diazaspiro[5.5]undecane-3-carbonyl)-2,3-dihydro-1H-inden-1-yl]-benzenesulfonic acid amide] the value was 102%.

Regarding `O=C(c1ccc2c(c1)C(NS(=O)(=O)c1c(Cl)cc(Cl)cc1Cl)CC2)N1CCC2(CCN(c3ccncc3)CC2)C1` (stereo not drawn) [IND_CC-407, 2,4,6-Trichloro-N-[6-(8-pyridin-4-yl-2,8-diazaspiro[4.5]decane-2-carbonyl)-2,3-dihydro-1H-inden-1-yl]-benzenesulfonic acid amide], the inhibition at 10 µM worked out at 101%. As to `CC(C)CC(=O)NC1CCc2ccc(C(=O)N3CCC4(CCN(c5ccncc5)CC4)C3)cc21` (stereo not drawn) [IND_CC-409, 3-Methyl-N-[6-(8-pyridin-4-yl-2,8-diazaspiro[4.5]decane-2-carbonyl)-2,3-dihydro-1H-inden-1-yl]-butyramide], the inhibition at 10 µM is 102%. In the case of `CCCC(=O)N(C)C1CCc2ccc(C(=O)N3CCC4(CC3)CCN(c3ccncc3)CC4)cc21` (stereo not drawn) [IND_CC-410, N-Methyl-N-[6-(9-pyridin-4-yl-3,9-diazaspiro[5.5]undecane-3-carbonyl)-2,3-dihydro-1H-inden-1-yl]-butyramide] it was 97%; in that of `CCCC(=O)NC1CCc2ccc(C(=O)N3CCC4(CCN(c5ccncc5)CC4)C3)cc21` (stereo not drawn) [IND_CC-411, N-[6-(8-Pyridin-4-yl-2,8-diazaspiro[4.5]decane-2-carbonyl)-2,3-dihydro-1H-inden-1-yl]-butyramide], 101%; in that of `CN(C(=O)CCC1CCCC1)C1CCc2ccc(C(=O)N3CCC4(CC3)CCN(c3ccncc3)CC4)cc21` (stereo not drawn) [IND_CC-412, 3-Cyclopentyl-N-methyl-N-[6-(9-pyridin-4-yl-3,9-diazaspiro[5.5]undecane-3-carbonyl)-2,3-dihydro-1H-inden-1-yl]-propionamide], 99%. In the case of `O=C(CCC1CCCC1)NC1CCc2ccc(C(=O)N3CCC4(CCN(c5ccncc5)CC4)C3)cc21` (stereo not drawn) [IND_CC-413, 3-Cyclopentyl-N-[6-(8-pyridin-4-yl-2,8-diazaspiro[4.5]decane-2-carbonyl)-2,3-dihydro-1H-inden-1-yl]-propionamide] it was 103%. In the case of `CN(C(=O)C1CCC1)C1CCc2ccc(C(=O)N3CCC4(CC3)CCN(c3ccncc3)CC4)cc21` (stereo not drawn) [IND_CC-414, N-Methyl-N-[6-(9-pyridin-4-yl-3,9-diazaspiro[5.5]undecane-3-carbonyl)-2,3-dihydro-1H-inden-1-yl]-cyclobutanecarboxylic acid amide] it was 102%; in that of `O=C(NC1CCc2ccc(C(=O)N3CCC4(CCN(c5ccncc5)CC4)C3)cc21)C1CCC1` (stereo not drawn) [IND_CC-415, N-[6-(8-Pyridin-4-yl-2,8-diazaspiro[4.5]decane-2-carbonyl)-2,3-dihydro-1H-inden-1-yl]-cyclobutanecarboxylic acid amide], 100%. In the case of `CCC(C)C(=O)N(C)C1CCc2ccc(C(=O)N3CCC4(CC3)CCN(c3ccncc3)CC4)cc21` (stereo not drawn) [IND_CC-416, N,2-Dimethyl-N-[6-(9-pyridin-4-yl-3,9-diazaspiro[5.5]undecane-3-carbonyl)-2,3-dihydro-1H-inden-1-yl]-butyramide], the inhibition at 10 µM came to 101%.

Regarding `CCC(C)C(=O)NC1CCc2ccc(C(=O)N3CCC4(CCN(c5ccncc5)CC4)C3)cc21` (stereo not drawn) [IND_CC-417, 2-Methyl-N-[6-(8-pyridin-4-yl-2,8-diazaspiro[4.5]decane-2-carbonyl)-2,3-dihydro-1H-inden-1-yl]-butyramide], the inhibition at 10 µM is 102%. For `CC(C)C(=O)N(C)C1CCc2ccc(C(=O)N3CCC4(CC3)CCN(c3ccncc3)CC4)cc21` (stereo not drawn) [IND_CC-418, N,2-Dimethyl-N-[6-(9-pyridin-4-yl-3,9-diazaspiro[5.5]undecane-3-carbonyl)-2,3-dihydro-1H-inden-1-yl]-propionamide], the inhibition at 10 µM is 99%. In the case of `CC(C)C(=O)NC1CCc2ccc(C(=O)N3CCC4(CCN(c5ccncc5)CC4)C3)cc21` (stereo not drawn) [IND_CC-419, 2-Methyl-N-[6-(8-pyridin-4-yl-2,8-diazaspiro[4.5]decane-2-carbonyl)-2,3-dihydro-1H-inden-1-yl]-propionamide], the inhibition at 10 µM came out at 101%. On to `CCC(CC)C(=O)NC1CCc2ccc(C(=O)N3CCC4(CCN(c5ccncc5)CC4)C3)cc21` (stereo not drawn) [IND_CC-420, 2-Ethyl-N-[6-(8-pyridin-4-yl-2,8-diazaspiro[4.5]decane-2-carbonyl)-2,3-dihydro-1H-inden-1-yl]-butyramide], for which the inhibition at 10 µM was 100%. In the case of `O=C(NC1CCc2ccc(C(=O)N3CCC4(CCN(S(=O)(=O)c5ccc(F)cc5F)CC4)C3)cc21)c1ccccc1Cl` (stereo not drawn) [IND_CC-500, 2-Chloro-N-[6-[8-[(2,4-difluoro-phenyl)sulfonyl]-2,8-diazaspiro[4.5]decane-2-carbonyl]-2,3-dihydro-1H-inden-1-yl]-benzamide] it was 51%; in that of `N#Cc1ccccc1S(=O)(=O)N1CCC2(CCN(C(=O)c3ccc4c(c3)C(NC(=O)c3ccccc3Cl)CC4)C2)CC1` (stereo not drawn) [IND_CC-501, 2-Chloro-N-[6-[8-[(2-cyano-phenyl)sulfonyl]-2,8-diazaspiro[4.5]decane-2-carbonyl]-2,3-dihydro-1H-inden-1-yl]-benzamide], 56%.

Take `O=C(NC1CCc2ccc(C(=O)N3CCC4(CCN(C(=O)Nc5ccc(F)c(Cl)c5)CC4)C3)cc21)c1ccccc1Cl` (stereo not drawn) [IND_CC-502, 2-[3-[(2-Chloro-benzoyl)amino]-2,3-dihydro-1H-indene-5-carbonyl]-N-(3-chloro-4-fluoro-phenyl)-2,8-diazaspiro[4.5]decane-8-carboxylic acid amide]: the inhibition at 10 µM is 71%. In the case of `N#Cc1cccc(NC(=O)N2CCC3(CC2)CCN(C(=O)c2ccc4c(c2)C(NC(=O)c2ccccc2Cl)CC4)C3)c1` (stereo not drawn) [IND_CC-503, 2-[3-[(2-Chloro-benzoyl)amino]-2,3-dihydro-1H-indene-5-carbonyl]-N-(3-cyano-phenyl)-2,8-diazaspiro[4.5]decane-8-carboxylic acid amide] it was 66%; in that of `O=C(NC1CCc2ccc(C(=O)N3CCC4(CCN(Cc5c(F)cccc5F)CC4)C3)cc21)c1ccccc1Cl` (stereo not drawn) [IND_CC-504, 2-Chloro-N-[6-[8-[(2,6-difluoro-phenyl)-methyl]-2,8-diazaspiro[4.5]decane-2-carbonyl]-2,3-dihydro-1H-inden-1-yl]-benzamide], 51%; in that of `CN(C(=O)c1ccccc1Cl)C1CCc2ccc(C(=O)N3CCC4(CCN(Cc5ccccc5C#N)CC4)C3)cc21` (stereo not drawn) [IND_CC-505, 2-Chloro-N-[6-[8-[(2-cyano-phenyl)-methyl]-2,8-diazaspiro[4.5]decane-2-carbonyl]-2,3-dihydro-1H-inden-1-yl]-N-methyl-benzamide], 67%.
